Experimental findings from article PMC4126345, “Large-scale filament formation inhibits the activity of CTP synthetase” (eLife, 2014) are described below.

The IC50 is the point on the concentration scale where inhibition reaches its midpoint. High values mean weaker potency, low ones greater potency.

Experiment [1] has as its target T1, CTP synthetase (CtpS) (Escherichia coli, UniProt P0A7E5).
T1 construct: gene pyrG; full-length
In words: CTP production (transmittance at […] nm) and light scattering of purified CtpS with DON. Type of experiment: biochemical.

The target in experiment [2] is T1, CTP synthetase (CtpS). Description: purified enzyme turnover to CTP; UTP with ATP depolymerizes and reactivates CtpS (light scattering and activity). It counts as biochemical.
The target in experiment [3] is T1, CTP synthetase (CtpS). In words: CTP production by purified enzyme initiated by glutamine. Type of experiment: biochemical.
Experiment [4] deals with T1, CTP synthetase (CtpS). In words: cryo-EM difference density in the CtpS filament ([…] Å). Type of experiment: binding.
The target in experiment [5] is T2, CTP synthetase (CtpS E277R) (Escherichia coli, UniProt P0A7E5, E277R).
T2 construct: gene pyrG; full-length, 6XHis tag not cleaved
In words: CTP inhibition of CTP synthesis by purified enzyme (absorbance at […] nm), […] enzyme. It counts as biochemical.

In experiment [6] the target is T1, CTP synthetase (CtpS). In words: purified enzyme turnover; ATP with UTP depolymerizes and reactivates CtpS (light scattering and activity). It counts as biochemical.

Structures are written as SMILES.

T1 sequence (P0A7E5 2-545): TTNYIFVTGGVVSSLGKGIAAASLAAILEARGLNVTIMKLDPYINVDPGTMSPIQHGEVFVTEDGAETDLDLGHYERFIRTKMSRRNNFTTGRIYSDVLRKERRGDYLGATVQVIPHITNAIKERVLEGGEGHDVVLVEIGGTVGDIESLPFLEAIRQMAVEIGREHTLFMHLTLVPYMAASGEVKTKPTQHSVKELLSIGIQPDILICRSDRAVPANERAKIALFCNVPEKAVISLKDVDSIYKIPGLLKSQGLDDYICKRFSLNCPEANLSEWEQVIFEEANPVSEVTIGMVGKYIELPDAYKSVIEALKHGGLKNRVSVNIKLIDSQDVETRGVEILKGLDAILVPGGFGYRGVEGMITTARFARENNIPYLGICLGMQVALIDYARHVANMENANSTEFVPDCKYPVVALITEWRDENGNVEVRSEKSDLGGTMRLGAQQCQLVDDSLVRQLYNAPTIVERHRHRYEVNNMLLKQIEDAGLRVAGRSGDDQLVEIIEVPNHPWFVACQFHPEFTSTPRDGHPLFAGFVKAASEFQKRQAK
T2 sequence (P0A7E5 2-545 E277R): as the sequence (P0A7E5 2-545) above, with E276R counted along it

As for `[N-]=[N+]=CC(=O)CC[C@H](N)C(=O)O` [6-Diazo-5-oxo-L-norleucine], the “CTP production (transmittance at 291 nm) and light scattering of purified CtpS w” value on CTP synthetase (CtpS) [1] is “When added to activity buffer, DON abolishes both CTP production and CtpS polymerization”. As to `O=c1ccn([C@@H]2O[C@H](CO[P@@](=O)(O)O[P@@](=O)(O)OP(=O)(O)O)[C@@H](O)[C@H]2O)c(=O)[nH]1` [UTP], on CTP synthetase (CtpS) [2], the “purified enzyme turnover to CTP; UTP with ATP depolymerizes and reactivates CtpS” value is recorded as “Upon addition of these substrate nucleotides, we observed a sharp decrease in light scattering”.

Regarding `NC(=O)CC[C@H](N)C(=O)O` [glutamine], at CTP synthetase (CtpS) [3], the “CTP production by purified enzyme initiated by glutamine” value is given as “CTP production was then initiated by the addition of glutamine to form a complete activity buffer”. Turning to `Nc1ncnc2c1ncn2[C@@H]1O[C@H](COP(=O)(O)OP(=O)(O)O)[C@@H](O)[C@H]1O` [ADP], the “cryo-EM difference density in the CtpS filament (8.4 Å)” value on CTP synthetase (CtpS) [4] was “Similarly strong density is found in the difference map in the positions of bound ADP”.

The molecule `Nc1ccn([C@@H]2O[C@H](COP(=O)(O)OP(=O)(O)OP(=O)(O)O)[C@@H](O)[C@H]2O)c(=O)n1` [CTP] registered an IC50 in experiment [5] of 833 µM. On to `Nc1ncnc2c1ncn2[C@@H]1O[C@H](COP(=O)(O)OP(=O)(O)OP(=O)(O)O)[C@@H](O)[C@H]1O` [ATP], for which the “purified enzyme turnover; ATP with UTP depolymerizes and reactivates CtpS (light)” value on CTP synthetase (CtpS) [6] was “Addition of ATP and UTP depolymerized the sample”.
